Results taken from US20020045638A1, “Method of treating estrogen receptor positive carcinoma” (priority 2000, published 2002).
Where two headings read alike, the source gives them in different places.

Tested on: MCF-7 human breast cancer cells
Test: Inhibition of growth of MCF-7 breast cancer cells (MTT), with MacSynergy II synergy analysis;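 note: cells treated five or six days with single agents or combinations, growth read by MTT, synergy surface equals observed % inhibition minus Bliss additive prediction, values under 0% signal antagonism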
Conditions: for inhibition at 0.1 µM / inhibition at 0.2 µM / inhibition at 0.4 µM / inhibition at 0.005 µM / inhibition at 0.01 µM / inhibition at 0.05 µM: Homo sapiens, MCF7, read-out: Percent Inhibition, Table E
Method: In these test procedures, rapamycin 42-ester with 3-hydroxy-2-(hydroxymethyl)-2-methylpropionic acid was used as a representative rapamycin, and 2-(4-hydroxy-phenyl)-3-methyl-1-[4-(2-piperdin-1-yl-ethoxy)-benzyl-1 H-indol-5-ol, raloxifene, and 4-hydroxytamoxifen were used as representative antiestrogens.
MCF-7 human breast cancer cells were maintained at 37° C. in a humidified atmosphere of 5% CO2 and 95% air in IMEM medium supplemented with 10% fetal bovine serum. […] One day before the experiment, cells were plated in 96-well plates at a cell density of 2,500 cells/well in IMEM medium supplemented with 10% fetal bovine serum. The next day, cells were treated with various concentrations of antiestrogen and rapamycin 42-ester with 3-hydroxy-2-(hydroxymethyl)-2-methylpropionic acid (referred to as CCI-779 in the tables below). Five or six-days later, cell growth was monitored. MTT solution (20 ul) (0.5 mg/ml) was added to each well and cells were incubated for an additional 4 h. The solution was then removed and 150 ul of DMSO added. The intensity of dark blue color corresponding to number of cells was read at 540 nm with an automated plate reader.
Briefly, theoretical additive interactions were calculated from the dose-response curves of each individual drug based on Bliss independence model. The calculated additive surface was then subtracted from the experimental surface to obtain a synergy surface representing % inhibition above the calculated additive value-synergy index. […] Likewise, any peak below the 0% plane is indicative of antagonism.

`CO[C@H]1C[C@@H]2CC[C@@H](C)[C@@](O)(O2)C(=O)C(=O)N2CCCC[C@H]2C(=O)O[C@H]([C@H](C)C[C@@H]2CC[C@@H](OC(=O)C(C)(CO)CO)[C@H](OC)C2)CC(=O)[C@H](C)/C=C(\C)[C@@H](O)[C@@H](OC)C(=O)[C@H](C)C[C@H](C)/C=C/C=C/C=C/1C` [CCI-779, rapamycin 42-ester with 3-hydroxy-2-(hydroxymethyl)-2-methylpropionic acid] was tested, and the inhibition at 0.1 µM (CCI-779 5 nM + CCI-779 100 nM) was 51%, the inhibition at 0.2 µM (CCI-779 5 nM + CCI-779 200 nM) was 58.1% and the inhibition at 0.4 µM (CCI-779 5 nM + CCI-779 400 nM) was 64.1%. The inhibition at 0.005 µM (CCI-779 10 nM + CCI-779 5 nM) was 18.8%, the inhibition at 0.01 µM (CCI-779 10 nM + CCI-779 10 nM) was 23.5% and the inhibition at 0.05 µM (CCI-779 10 nM + CCI-779 50 nM) was 51.2%. The inhibition at 0.1 µM (CCI-779 10 nM + CCI-779 100 nM) was 54.8%, the inhibition at 0.2 µM (CCI-779 10 nM + CCI-779 200 nM) was 62.4% and the inhibition at 0.4 µM (CCI-779 10 nM + CCI-779 400 nM) was 65.2%. For the same molecule, the inhibition at 0.005 µM (CCI-779 50 nM + CCI-779 5 nM) was 48.3%, the inhibition at 0.01 µM (CCI-779 50 nM + CCI-779 10 nM) was 46.9% and the inhibition at 0.05 µM (CCI-779 50 nM + CCI-779 50 nM) was 50.3%. For the same molecule, the inhibition at 0.1 µM (CCI-779 50 nM + CCI-779 100 nM) was 54.6%, the inhibition at 0.2 µM (CCI-779 50 nM + CCI-779 200 nM) was 57.5% and the inhibition at 0.4 µM (CCI-779 50 nM + CCI-779 400 nM) was 60.2%. For the same molecule, the inhibition at 0.005 µM (CCI-779 100 nM + CCI-779 5 nM) was 54.2%, the inhibition at 0.01 µM (CCI-779 100 nM + CCI-779 10 nM) was 52.9% and the inhibition at 0.05 µM (CCI-779 100 nM + CCI-779 50 nM) was 51%. It also gave an inhibition at 0.1 µM (CCI-779 100 nM + CCI-779 100 nM) of 55%, an inhibition at 0.2 µM (CCI-779 100 nM + CCI-779 200 nM) of 62.5% and an inhibition at 0.4 µM (CCI-779 100 nM + CCI-779 400 nM) of 66.8%. It also gave an inhibition at 0.005 µM (CCI-779 200 nM + CCI-779 5 nM) of 51.4%, an inhibition at 0.01 µM (CCI-779 200 nM + CCI-779 10 nM) of 57.1% and an inhibition at 0.05 µM (CCI-779 200 nM + CCI-779 50 nM) of 57.2%. For the same molecule, the inhibition at 0.1 µM (CCI-779 200 nM + CCI-779 100 nM) was 59%, the inhibition at 0.2 µM (CCI-779 200 nM + CCI-779 200 nM) was 65.5% and the inhibition at 0.4 µM (CCI-779 200 nM + CCI-779 400 nM) was 66.8%. The inhibition at 0.005 µM (CCI-779 400 nM + CCI-779 5 nM) was 61.1%, the inhibition at 0.01 µM (CCI-779 400 nM + CCI-779 10 nM) was 61.1% and the inhibition at 0.05 µM (CCI-779 400 nM + CCI-779 50 nM) was 60%. The inhibition at 0.1 µM (CCI-779 400 nM + CCI-779 100 nM) was 62%, the inhibition at 0.2 µM (CCI-779 400 nM + CCI-779 200 nM) was 66.3% and the inhibition at 0.4 µM (CCI-779 400 nM + CCI-779 400 nM) was 69.7%. For the same molecule, the “concentrations at which synergy was more pronounced” value (MCF-7, ERA-923 in combination with CCI-779 (Table A)) was 300 to 400 nM, the “Percent Inhibition” value (Table A, CCI-779 5 nM, ERA-923 0 nM) was −13.25% and the “Percent Inhibition” value (Table A, CCI-779 10 nM, ERA-923 0 nM) was −1.54%. The “Percent Inhibition” value (Table A, CCI-779 50 nM, ERA-923 0 nM) was 26.68%, the “Percent Inhibition” value (Table A, CCI-779 100 nM, ERA-923 0 nM) was 37.93% and the “Percent Inhibition” value (Table A, CCI-779 200 nM, ERA-923 0 nM) was 34.99%. The “Percent Inhibition” value (Table A, CCI-779 400 nM, ERA-923 0 nM) was 39.43%, the “Percent Inhibition” value (Table E, CCI-779 5 nM + CCI-779 0 nM) was 0.59% and the “Percent Inhibition” value (Table E, CCI-779 10 nM + CCI-779 0 nM) was 4.91%. The “Percent Inhibition” value (Table E, CCI-779 50 nM + CCI-779 0 nM) was 36.55%, the “Percent Inhibition” value (Table E, CCI-779 100 nM + CCI-779 0 nM) was 42.35% and the “Percent Inhibition” value (Table E, CCI-779 200 nM + CCI-779 0 nM) was 45.87%. For the same molecule, the “Percent Inhibition” value (Table E, CCI-779 400 nM + CCI-779 0 nM) was 55.78%.
